How the values were obtained:
[1] = tested on: untransformed control canola plants; assay: 2,4-D DMA tolerance, untransformed canola control; type: in vivo, Brassica napus
Excerpt: Surviving plants were transplanted into 3-inch pots containing Metro Mix media. Surviving plants from T1 progenies, that were selected with 560 g ae/ha 2,4-D, were also transplanted into 3-inch pots filled with Metro Mix soil. At 2-4 leaf stage plants were sprayed with either 280, 560, 1120, or 2240 g ae/ha 2,4-D DMA. Plants were graded at 3 and 14 DAT and compared to untransformed control plants. A sampling of T1 event injury data 14DAT may be seen in Table 30.

T1 AAD-12 (v1) tobacco = assay: Elevated 2,4-D DMA rates in greenhouse tobacco, AAD-12; type: in vivo, Nicotiana tabacum
Excerpt: T1 AAD-12 (v1) plants from an event segregating 3R:1S when selected with 560 g ai/ha Liberty using the same protocol as previously described. T1 AAD-1 (v3) seed was also planted for transformed tobacco controls (see PCT/US2005/014737). Untransformed KY160 was served as the sensitive control. Plants were sprayed using a track sprayer set to 187 L/ha at 140, 560, 2240, 8960, and 35840 g ae/ha 2,4-D DMA and rated 3 and 14 DAT.

[2] = tested on: AAD-12 (v1)-containing T0 soybean plants; assay: 2,4-D spray application on T0 soybean; type: in vivo, Glycine max
Excerpt: Plants that are transferred to the greenhouse can be assayed for the presence of an active PAT gene further with a non-destructive manner by painting a section of leaf of the T0 primary transformant, or progeny thereof, with a glufosinate solution [0.05-2% v/v Liberty Herbicide, preferably 0.25-1.0% (v/v),=500-2000 ppm glufosinate, Bayer Crop Science]. Depending on the concentration used, assessment for glufosinate injury can be made 1-7 days after treatment. Plants can also be tested for 2,4-D tolerance in a non-destructive manner by selective application of a 2,4-D solution in water (0.25-1% v/v commercial 2,4-D dimethylamine salt formulation, preferably 0.5% v/v=2280 ppm 2,4-D ae) to the terminal leaflet of the newly expanding trifoliolate one or two, preferably two, nodes below the youngest emerging trifolioate. This assay allows assessment of 2,4-D sensitive plants 6 hours to several days after application by assessment of leaf flipping or rotation >90 degrees from the plane of the adjacent leaflets. Plants tolerant to 2,4-D will not respond to 2,4-D. To plants will be allowed to self fertilize in the greenhouse to give rise to T1 seed. T1 plants (and to the extent enough T0 plant clones are produced) will be sprayed with a range of herbicide doses to determine the level of herbicide protection afforded by AAD-12 (v1) and PAT genes in transgenic soybean. Rates of 2,4-D used on T0 plants will typically comprise one or two selective rates in the range of 100-1120 g ae/ha using a track sprayer as previously described. T1 plants will be treated with a wider herbicide dose ranging from 50-3200 g ae/ha 2,4-D. Likewise, T0 and T1 plants can be screened for glufosinate resistance by postemergence treatment with 200-800 and 50-3200 g ae/ha glufosinate, respectively. Glyphosate resistance (in plants transformed with constructs that contain EPSPS) or another glyphosate tolerance gene can be assessed in the T1 generation by postemergence applications of glyphosate with a dose range from 280-2240 g ae/ha glyphosate. Analysis of protein expression will occur as described in below. Individual T0 plants were assessed for the presence of the coding region of the gene of interest (AAD-12 (v1) or PAT v6) and copy number. Determination of the inheritance of AAD-12 (v1) will be made using T1 and T2 progeny segregation with respect to herbicide tolerance as described in previous examples. […]

[3] = tested on: R-dichlorprop habituated BY2 tobacco cells; assay: 2,4-D dose response of tobacco cell suspension (BY2); type: cell-based; details: LSBY2C medium
Method: A dose response study was conducted with both the R-dichlorprop habituated PHL cells and the R-dichlorprop habituated BY2 cells where R-dichlorprop was substituted directly for 2,4-D in culture media. Though the focus was on PHL, a dose response was also done with BY2 in case of possible future studies, as well as to help predict the dose response for PHL. For the dichlorprop habituated PHL dose response, the levels of 2,4-D used (on LSBY2C medium with R-dichlorprop) were 0 (the control), 1, 2, 3, 5, 8, 10, 12, 15, 18, 20, 40, 60, 80, […] mg/L 2,4-D. There were four replications per concentration. For the R-dichlorprop habituated BY2 dose response, the levels of 2,4-D used (on LSBY2C medium) were 0 (the control), 1, 2, 3, 5, 8, 10, 20, 30, 40, mg/L 2,4-D.

[4] = event D-2-14 (pDAB4464, CsVMV), spray POST over the top 560 g ae/ha 2,4-D
[5] = event D-3-5 (pDAB4468, AtUbi10), spray POST over the top 560 g ae/ha 2,4-D
[6] = event D-3-6 (pDAB4468, AtUbi10), spray POST over the top 560 g ae/ha 2,4-D
[7] = event D-3-9 (pDAB4468, AtUbi10), spray POST over the top 1120 g ae/ha 2,4-D
[8] = event D-4-17 (pDAB4468, AtUbi10), spray POST over the top 1120 g ae/ha 2,4-D
[9] = event D-5-2 (pDAB4472, AtUbi3), spray POST over the top 560 g ae/ha 2,4-D

## CNC.O=C(O)COc1ccc(Cl)cc1Cl [2,4-D DMA]
[1]; 280 g ae/ha
  Average % injury 14 DAT: 85%
[1]; 560 g ae/ha
  Average % injury 14 DAT: 85%
[1]; 1120 g ae/ha
  Average % injury 14 DAT: 90%
[1]; 2240 g ae/ha
  Average % injury 14 DAT: 95%

## O=C(O)COc1ccc(Cl)cc1Cl [2,4-D, 2,4-dichlorophenoxyacetic acid]
T1 AAD-12 (v1) tobacco; 2240 g ae/ha 2,4-D
  Average % injury 14 DAT: 0%
T1 AAD-12 (v1) tobacco; 8960 g ae/ha 2,4-D
  Average % injury 14 DAT: 0%
T1 AAD-12 (v1) tobacco; 35840 g ae/ha 2,4-D
  Average % injury 14 DAT: 4%
[2]; 560 or 1120 g ae 2,4-D
  response to herbicide spray application: clearly resistant
[2]; [4]
  % injury 2 DAT: 0%
  % injury 7 DAT: 0%
  % injury 14 DAT: 0%
[2]; [5]
  % injury 2 DAT: 0%
  % injury 7 DAT: 0%
  % injury 14 DAT: 0%
[2]; [6]
  % injury 2 DAT: 0%
  % injury 7 DAT: 0%
  % injury 14 DAT: 0%
[2]; [7]
  % injury 2 DAT: 0%
  % injury 7 DAT: 0%
  % injury 14 DAT: 0%
[2]; [8]
  % injury 2 DAT: 5%
  % injury 7 DAT: 0%
  % injury 14 DAT: 0%
[2]; [9]
  % injury 2 DAT: 5%
  % injury 7 DAT: 0%
  % injury 14 DAT: 0%
[3]
  lethal concentration of 2,4-D: 10 mg/L
  sub lethal concentration of 2,4-D: 8 mg/L

From patent publication US11371055B2, “Herbicide resistance genes” (CORTEVA AGRISCIENCE LLC, priority 2005, dated 2022)
